Structures are written as SMILES. Square brackets hold non-standard residues; d marks the D form. Peptide text beside a SMILES is read from it. * marks the point of attachment. Octanoyl = CCCCCCCC(=O)*; Aib = CC(C)(N)C(=O)O; Inp = O=C(O)C1CCNCC1

The record followed here is patent US8299022B2, “Analogs of ghrelin substituted at the N-terminal” (IPSEN Pharma S.A.S., priority 2006, dated 2012).

This data set can be described thus: Rat plasma ½ life (stability in plasma in a rat model). It is filed as in vitro ADME. On the procedure: A selection of the preferred embodiments listed above was analyzed to determine stability, i.e. ½ life in plasma in a rat model using techniques known to those skilled in the art.

As to `CCCCCCNC(=O)CC[C@H](NC(=O)C(C)(C)NC(=O)C1(N)CCNCC1)C(=O)N[C@@H](Cc1ccccc1)C(=O)N[C@@H](CC(C)C)C(=O)N[C@@H](CO)C(=O)N1CCC[C@H]1C(=O)N[C@@H](CCC(=O)O)C(=O)N[C@@H](Cc1c[nH]cn1)C(=O)NC(C)(C)C(=O)N[C@@H](CCCNC(=N)N)C(=O)N[C@H](C(=O)N[C@@H](CCC(N)=O)C(=O)N[C@@H](CCC(N)=O)C(=O)N[C@@H](CCCNC(=N)N)C(=O)N[C@@H](CCCCN)C(=O)N[C@@H](CCC(=O)O)C(=O)N[C@@H](CO)C(=O)N[C@@H](CCCCN)C(=O)N[C@@H](CCCCN)C(=O)N1CCC[C@H]1C(=O)N1CCC[C@H]1C(=O)N[C@@H](C)C(=O)N[C@@H](CCCCN)C(=O)N[C@@H](CC(C)C)C(=O)N[C@@H](CCC(N)=O)C(=O)N1CCC[C@H]1C(=O)N[C@@H](CCCNC(=N)N)C(N)=O)C(C)C` [Example 4, (1-Apc^1, Aib^2, 10, Glu(NH-hexyl)^3)-hGhrelin(1-28)-NH2], the “Rat Plasma ½ life” value turned out to be 10.0 h.
`CCCCCCCC(=O)OC[C@H](NC(=O)[C@H](CO)NC(=O)C1CCNCC1)C(=O)N[C@@H](Cc1ccccc1)C(=O)N[C@@H](CC(C)C)C(=O)N[C@@H](CO)C(=O)N1CCC[C@H]1C(=O)N[C@@H](CCC(=O)O)C(=O)N[C@@H](Cc1c[nH]cn1)C(=O)N[C@@H](CCC(N)=O)C(=O)N[C@@H](CCCNC(=N)N)C(=O)N[C@H](C(=O)N[C@@H](CCC(N)=O)C(=O)N[C@@H](CCC(N)=O)C(=O)N[C@@H](CCCNC(=N)N)C(=O)N[C@@H](CCCCN)C(=O)N[C@@H](CCC(=O)O)C(=O)N[C@@H](CO)C(=O)N[C@@H](CCCCN)C(=O)N[C@@H](CCCCN)C(=O)N1CCC[C@H]1C(=O)N1CCC[C@H]1C(=O)N[C@@H](C)C(=O)N[C@@H](CCCCN)C(=O)N[C@@H](CC(C)C)C(=O)N[C@@H](CCC(N)=O)C(=O)N1CCC[C@H]1C(=O)N[C@@H](CCCNC(=N)N)C(N)=O)C(C)C` [Example 5, (Inp^1)hGhrelin(1-28)-NH2]: the “Rat Plasma ½ life” value came out at 6.2 h.
To `CCCCCCCC(=O)OC[C@H](NC(=O)C(C)(C)NC(=O)C1CCNCC1)C(=O)N[C@@H](Cc1ccccc1)C(=O)N[C@@H](CC(C)C)C(=O)N[C@@H](CO)C(=O)N1CCC[C@H]1C(=O)N[C@@H](CCC(=O)O)C(=O)N[C@@H](Cc1c[nH]cn1)C(=O)N[C@@H](CCC(N)=O)C(=O)N[C@@H](CCCNC(=N)N)C(=O)N[C@H](C(=O)N[C@@H](CCC(N)=O)C(=O)N[C@@H](CCC(N)=O)C(=O)N[C@@H](CCCNC(=N)N)C(=O)N[C@@H](CCCCN)C(=O)N[C@@H](CCC(=O)O)C(=O)N[C@@H](CO)C(=O)N[C@@H](CCCCN)C(=O)N[C@@H](CCCCN)C(=O)N1CCC[C@H]1C(=O)N1CCC[C@H]1C(=O)N[C@@H](C)C(=O)N[C@@H](CCCCN)C(=O)N[C@@H](CC(C)C)C(=O)N[C@@H](CCC(N)=O)C(=O)N1CCC[C@H]1C(=O)N[C@@H](CCCNC(=N)N)C(N)=O)C(C)C` [Example 6, (Inp^1, Aib^2)hGhrelin(1-28)-NH2] belongs 1.4 h; to `CCCCCCNC(=O)CC[C@H](NC(=O)C(C)(C)NC(=O)C1CCNCC1)C(=O)N[C@@H](Cc1ccccc1)C(=O)N[C@@H](CC(C)C)C(=O)N[C@@H](CO)C(=O)N1CCC[C@H]1C(=O)N[C@@H](CCC(=O)O)C(=O)N[C@@H](Cc1c[nH]cn1)C(=O)N[C@@H](CCC(N)=O)C(=O)N[C@@H](CCCNC(=N)N)C(=O)N[C@H](C(=O)N[C@@H](CCC(N)=O)C(=O)N[C@@H](CCC(N)=O)C(=O)N[C@@H](CCCNC(=N)N)C(=O)N[C@@H](CCCCN)C(=O)N[C@@H](CCC(=O)O)C(=O)N[C@@H](CO)C(=O)N[C@@H](CCCCN)C(=O)N[C@@H](CCCCN)C(=O)N1CCC[C@H]1C(=O)N1CCC[C@H]1C(=O)N[C@@H](C)C(=O)N[C@@H](CCCCN)C(=O)N[C@@H](CC(C)C)C(=O)N[C@@H](CCC(N)=O)C(=O)N1CCC[C@H]1C(=O)N[C@@H](CCCNC(=N)N)C(N)=O)C(C)C` [Example 7, (Inp^1, Aib^2, Glu(NH-hexyl)^3)hGhrelin(1-28)-NH2], 6.7 h.
For the compound `CCCCCCCC(=O)OC[C@H](NC(=O)C(C)(C)NC(=O)C1CCNCC1)C(=O)N[C@@H](Cc1ccccc1)C(=O)N[C@@H](CC(C)C)C(=O)N[C@@H](CO)C(=O)N1CCC[C@H]1C(=O)N[C@@H](CCC(=O)O)C(=O)N[C@@H](Cc1c[nH]cn1)C(=O)NC(C)(C)C(=O)N[C@@H](CCCNC(=N)N)C(=O)N[C@H](C(=O)N[C@@H](CCC(N)=O)C(=O)N[C@@H](CCC(N)=O)C(=O)N[C@@H](CCCNC(=N)N)C(=O)N[C@@H](CCCCN)C(=O)N[C@@H](CCC(=O)O)C(=O)N[C@@H](CO)C(=O)N[C@@H](CCCCN)C(=O)N[C@@H](CCCCN)C(=O)N1CCC[C@H]1C(=O)N1CCC[C@H]1C(=O)N[C@@H](C)C(=O)N[C@@H](CCCCN)C(=O)N[C@@H](CC(C)C)C(=O)N[C@@H](CCC(N)=O)C(=O)N1CCC[C@H]1C(=O)N[C@@H](CCCNC(=N)N)C(N)=O)C(C)C` [Example 8, (Inp^1, Aib^2, 10)hGhrelin(1-28)-NH2], the “Rat Plasma ½ life” value was found to be 1.2 h.
Regarding `CCCCCCCC(=O)OC[C@H](NC(=O)C(C)(C)NC(=O)C1CCNCC1)C(=O)N[C@@H](Cc1ccccc1)C(=O)N[C@@H](CC(C)C)C(=O)N[C@@H](CO)C(=O)N1CCC[C@H]1C(=O)NC(C)(C)C(=O)N[C@@H](Cc1c[nH]cn1)C(=O)N[C@@H](CCC(N)=O)C(=O)N[C@@H](CCCNC(=N)N)C(=O)N[C@H](C(=O)N[C@@H](CCC(N)=O)C(=O)N[C@@H](CCC(N)=O)C(=O)N[C@@H](CCCNC(=N)N)C(=O)N[C@@H](CCCCN)C(=O)N[C@@H](CCC(=O)O)C(=O)N[C@@H](CO)C(=O)N[C@@H](CCCCN)C(=O)N[C@@H](CCCCN)C(=O)N1CCC[C@H]1C(=O)N1CCC[C@H]1C(=O)N[C@@H](C)C(=O)N[C@@H](CCCCN)C(=O)N[C@@H](CC(C)C)C(=O)N[C@@H](CCC(N)=O)C(=O)N1CCC[C@H]1C(=O)N[C@@H](CCCNC(=N)N)C(N)=O)C(C)C` [Example 9, (Inp^1, Aib^2, 8)hGhrelin(1-28)-NH2], the “Rat Plasma ½ life” value was 1.2 h.
`CCCCCCCC(=O)OC[C@H](NC(=O)[C@H](CCCCN)NC(=O)[C@H](CCCNC(=N)N)NC(=O)[C@H](CCC(N)=O)NC(=O)[C@H](CCC(N)=O)NC(=O)[C@@H](NC(=O)[C@H](CCCNC(=N)N)NC(=O)[C@H](CCC(N)=O)NC(=O)[C@H](Cc1c[nH]cn1)NC(=O)[C@H](CCC(=O)O)NC(=O)[C@@H]1CCCN1C(=O)[C@H](CO)NC(=O)[C@H](CC(C)C)NC(=O)[C@H](Cc1ccccc1)NC(=O)[C@H](COC(=O)CCCCCCC)NC(=O)C(C)(C)NC(=O)C1CCNCC1)C(C)C)C(=O)N[C@@H](CO)C(=O)N[C@@H](CCCCN)C(=O)N[C@@H](CCCCN)C(=O)N1CCC[C@H]1C(=O)N1CCC[C@H]1C(=O)N[C@@H](C)C(=O)N[C@@H](CCCCN)C(=O)N[C@@H](CC(C)C)C(=O)N[C@@H](CCC(N)=O)C(=O)N1CCC[C@H]1C(=O)N[C@@H](CCCNC(=N)N)C(N)=O` [Example 10, (Inp^1, Aib^2, Ser(n-octanoyl)^17)hGhrelin(1-28)-NH2]: the “Rat Plasma ½ life” value amounted to 0.6 h.
In the case of `CCCCCCCC(=O)OC[C@H](NC(=O)[C@H](CO)NC(=O)C1CCNCC1)C(=O)N[C@@H](Cc1ccccc1)C(=O)N[C@@H](CC(C)C)C(=O)N[C@@H](CO)C(=O)N1CCC[C@H]1C(=O)N[C@@H](CCC(=O)O)C(=O)N[C@@H](Cc1c[nH]cn1)C(=O)N[C@@H](CCC(N)=O)C(=O)N[C@@H](CCCNC(=N)N)C(=O)N[C@H](C(=O)N[C@@H](CCC(N)=O)C(=O)N[C@@H](CCC(N)=O)C(=O)N[C@@H](CCCNC(=N)N)C(=O)N[C@@H](CCCCN)C(=O)N[C@@H](COC(=O)CCCCCCC)C(=O)N[C@@H](CO)C(=O)N[C@@H](CCCCN)C(=O)N[C@@H](CCCCN)C(=O)N1CCC[C@H]1C(=O)N1CCC[C@H]1C(=O)N[C@@H](C)C(=O)N[C@@H](CCCCN)C(=O)N[C@@H](CC(C)C)C(=O)N[C@@H](CCC(N)=O)C(=O)N1CCC[C@H]1C(=O)N[C@@H](CCCNC(=N)N)C(N)=O)C(C)C` [Example 11, (Inp^1, Ser(n-octanoyl)^17)hGhrelin(1-28)-NH2] it was 0.7 h; in that of `CCCCCCCC(=O)OC[C@H](NC(=O)[C@H](CCCCN)NC(=O)[C@H](CCCNC(=N)N)NC(=O)[C@H](CCC(N)=O)NC(=O)[C@H](CCC(N)=O)NC(=O)[C@@H](NC(=O)[C@H](CCCNC(=N)N)NC(=O)[C@H](CCC(N)=O)NC(=O)[C@H](Cc1c[nH]cn1)NC(=O)C(C)(C)NC(=O)[C@@H]1CCCN1C(=O)[C@H](CO)NC(=O)[C@H](CC(C)C)NC(=O)[C@H](Cc1ccccc1)NC(=O)[C@H](COC(=O)CCCCCCC)NC(=O)C(C)(C)NC(=O)C1CCNCC1)C(C)C)C(=O)N[C@@H](CO)C(=O)N[C@@H](CCCCN)C(=O)N[C@@H](CCCCN)C(=O)N1CCC[C@H]1C(=O)N1CCC[C@H]1C(=O)N[C@@H](C)C(=O)N[C@@H](CCCCN)C(=O)N[C@@H](CC(C)C)C(=O)N[C@@H](CCC(N)=O)C(=O)N1CCC[C@H]1C(=O)N[C@@H](CCCNC(=N)N)C(N)=O` [Example 12, (Inp^1, Aib^2,8, Ser(n-octanoyl)^17)hGhrelin(1-28)-NH2] (H-[Inp][Aib]S(Octanoyl)FLSP[Aib]HQRVQQRKS(Octanoyl)SKKPPAKLQPR-NH2; N-terminus assumed), 0.7 h.
